Results on 41 molecules are retold here after ChEMBL document CHEMBL1135452, “Side-chain homologation of nodulisporic acid: synthesis of potent new dienyl derivatives” (Bioorg Med Chem Lett, 2002).

The subject of this test is Pulicinae. In words: In vitro systemic flea efficacy using membrane feeding assay. It is filed as functional.
`C=C(C)[C@H]1C(=O)c2c3c(cc4c5c(n1c24)[C@@]1(C)C(CC[C@H]2[C@](C)(/C=C/C=C(\CC)C(=O)NCC)[C@@H](O)CC[C@@]21C)C5)C1=CC(C)(C)OC(C)(C)C1[C@@H]3O` (stereo partly specified) registered an Activity of 1 p.p.m.

With `C=C(C)[C@H]1C(=O)c2c3c(cc4c5c(n1c24)[C@@]1(C)C(CC[C@H]2[C@](C)(/C=C/C=C/C(=O)O)[C@@H](O)CC[C@@]21C)C5)C1=CC(C)(C)OC(C)(C)C1[C@@H]3O` (stereo partly specified), the Activity came to 10 p.p.m.

For the molecule `C=C(C)[C@H]1C(=O)c2c3c(cc4c5c(n1c24)[C@@]1(C)C(CC[C@H]2[C@](C)(/C=C/C(C)=C/C(=O)NC(C)(C)C)[C@@H](O)CC[C@@]21C)C5)C1=CC(C)(C)OC(C)(C)C1[C@@H]3O` (stereo partly specified), the Activity worked out at 10 p.p.m.

`C=C(C)[C@H]1C(=O)c2c3c(cc4c5c(n1c24)[C@@]1(C)C(CC[C@H]2[C@](C)(/C=C/C=C/C(=O)NCC)[C@@H](O)CC[C@@]21C)C5)C1=CC(C)(C)OC(C)(C)C1[C@@H]3O` (stereo partly specified) had an Activity of 1 p.p.m.

`C=C(C)[C@H]1C(=O)c2c3c(cc4c5c(n1c24)[C@@]1(C)C(CC[C@H]2[C@](C)(/C=C/C=C(\F)C(=O)NC(C)(C)C)[C@@H](O)CC[C@@]21C)C5)C1=CC(C)(C)OC(C)(C)C1[C@@H]3O` (stereo partly specified) came in with an Activity of 1 p.p.m.

With `C=C(C)[C@H]1C(=O)c2c3c(cc4c5c(n1c24)[C@@]1(C)C(CC[C@H]2[C@](C)(/C=C/C=C(\OC)C(=O)NC(C)(C)C)[C@@H](O)CC[C@@]21C)C5)C1=CC(C)(C)OC(C)(C)C1C3` (stereo partly specified), the Activity was over 10 p.p.m.

Consider `C=C(C)[C@H]1C(=O)c2c3c(cc4c5c(n1c24)[C@@]1(C)C(CC[C@H]2[C@](C)(/C=C/C=C(\OC)C(=O)NC(C)(C)C)[C@@H](O)CC[C@@]21C)C5)C1=CC(C)(C)OC(C)(C)C1[C@@H]3O` (stereo partly specified), for which the Activity turned out to be 1 p.p.m.

`C=C(C)[C@H]1C(=O)c2c3c(cc4c5c(n1c24)[C@@]1(C)C(CC[C@H]2[C@](C)(/C=C/C=C/C(=O)NC(C)(C)C)[C@@H](O)CC[C@@]21C)C5)C1=CC(C)(C)OC(C)(C)C1[C@@H]3O` (stereo partly specified) displayed an Activity of 1 p.p.m.

`C=C(C)[C@H]1C(=O)c2c3c(cc4c5c(n1c24)[C@@]1(C)C(CC[C@H]2[C@](C)(/C=C/C=C/C(=O)OC(C)(C)C)[C@@H](O)CC[C@@]21C)C5)C1=CC(C)(C)OC(C)(C)C1[C@@H]3O` (stereo partly specified) had an Activity of 10 p.p.m.

As for `C=C(C)[C@H]1C(=O)c2c3c(cc4c5c(n1c24)[C@@]1(C)C(CC[C@H]2[C@](C)(/C=C/C=C/C(=O)N(C)CC)[C@@H](O)CC[C@@]21C)C5)C1=CC(C)(C)OC(C)(C)C1[C@@H]3O` (stereo partly specified), the Activity is 1 p.p.m.

In turn, `C=C(C)[C@H]1C(=O)c2c3c(cc4c5c(n1c24)[C@@]1(C)C(CC[C@H]2[C@](C)(/C=C/C=C(\C#N)C(=O)N(C)C)[C@@H](O)CC[C@@]21C)C5)C1=CC(C)(C)OC(C)(C)C1[C@@H]3O` (stereo partly specified) gave an Activity of 1 p.p.m.

`C=C(C)[C@H]1C(=O)c2c3c(cc4c5c(n1c24)[C@@]1(C)C(CC[C@H]2[C@](C)(/C=C/C=C(\CC)C(N)=O)[C@@H](O)CC[C@@]21C)C5)C1=CC(C)(C)OC(C)(C)C1[C@@H]3O` (stereo partly specified) registered an Activity of 1 p.p.m.

Molecule `C=C(C)[C@H]1C(=O)c2c3c(cc4c5c(n1c24)[C@@]1(C)C(CC[C@H]2[C@](C)(/C=C/C(C)=C/C(=O)NC(C)C)[C@@H](O)CC[C@@]21C)C5)C1=CC(C)(C)OC(C)(C)C1[C@@H]3O` (stereo partly specified) displayed an Activity of 1 p.p.m.

`C=C(C)[C@H]1C(=O)c2c3c(cc4c5c(n1c24)[C@@]1(C)C(CC[C@H]2[C@](C)(/C=C/C=C(\CC)C(=O)N4CCCC4)[C@@H](O)CC[C@@]21C)C5)C1=CC(C)(C)OC(C)(C)C1[C@@H]3O` (stereo partly specified) displayed an Activity of 10 p.p.m.

`C=C(C)[C@H]1C(=O)c2c3c(cc4c5c(n1c24)[C@@]1(C)C(CC[C@H]2[C@](C)(/C=C/C=C(\OC)C(=O)O)[C@@H](O)CC[C@@]21C)C5)C1=CC(C)(C)OC(C)(C)C1[C@@H]3O` (stereo partly specified): the Activity was 10 p.p.m.

On to `C=CCOC(=O)/C=C/C=C/[C@]1(C)[C@@H](O)CC[C@@]2(C)[C@H]1CCC1Cc3c(n4c5c(c6c(cc35)C3=CC(C)(C)OC(C)(C)C3[C@@H]6O)C(=O)[C@@H]4C(=C)C)[C@@]12C` (stereo partly specified), for which the Activity turned out to be 1 p.p.m.

As for `C=C/C=C/[C@]1(C)[C@@H](O)CC[C@@]2(C)[C@H]1CCC1Cc3c(n4c5c(c6c(cc35)C3=CC(C)(C)OC(C)(C)C3[C@@H]6O)C(=O)[C@@H]4C(=C)C)[C@@]12C` (stereo partly specified), the Activity was 10 p.p.m.

`C=CC/C(=C\C=C\[C@]1(C)[C@@H](O)CC[C@@]2(C)[C@H]1CCC1Cc3c(n4c5c(c6c(cc35)C3=CC(C)(C)OC(C)(C)C3[C@@H]6O)C(=O)[C@@H]4C(=C)C)[C@@]12C)C(=O)OC` (stereo partly specified) displayed an Activity of 10 p.p.m.

In turn, `C=C(C)[C@H]1C(=O)c2c3c(cc4c5c(n1c24)[C@@]1(C)C(CC[C@H]2[C@](C)(/C=C/C=C/C(=O)NCc4ccccc4)[C@@H](O)CC[C@@]21C)C5)C1=CC(C)(C)OC(C)(C)C1[C@@H]3O` (stereo partly specified) registered an Activity of 10 p.p.m.

The molecule `C=C(C)[C@H]1C(=O)c2c3c(cc4c5c(n1c24)[C@@]1(C)C(CC[C@H]2[C@](C)(/C=C/C=C(\CCC)C(N)=O)[C@@H](O)CC[C@@]21C)C5)C1=CC(C)(C)OC(C)(C)C1[C@@H]3O` (stereo partly specified) gave an Activity of 10 p.p.m.

Molecule `C=C(C)[C@H]1C(=O)c2c3c(cc4c5c(n1c24)[C@@]1(C)C(CC[C@H]2[C@](C)(/C=C/C(C)=C/C(=O)O)[C@@H](O)CC[C@@]21C)C5)C1=CC(C)(C)OC(C)(C)C1[C@@H]3O` (stereo partly specified) returned an Activity of 10 p.p.m.

As for `C=C(C)[C@H]1C(=O)c2c3c(cc4c5c(n1c24)[C@@]1(C)C(CC[C@H]2[C@](C)(/C=C/C=C/C(C)=O)[C@@H](O)CC[C@@]21C)C5)C1=CC(C)(C)OC(C)(C)C1[C@@H]3O` (stereo partly specified), the Activity turned out to be 10 p.p.m.

`C=C(C)[C@H]1C(=O)c2c3c(cc4c5c(n1c24)[C@@]1(C)C(CC[C@H]2[C@](C)(/C=C/C=C(\CCC)C(=O)NCC)[C@@H](O)CC[C@@]21C)C5)C1=CC(C)(C)OC(C)(C)C1[C@@H]3O` (stereo in doubt; 45) displayed an Activity of 1 p.p.m.

In turn, `C=C(C)[C@H]1C(=O)c2c3c(cc4c5c(n1c24)[C@@]1(C)C(CC[C@H]2[C@](C)(/C=C/C=C(\C)C(=O)O)[C@@H](O)CC[C@@]21C)C5)C1=CC(C)(C)OC(C)(C)C1[C@@H]3O` (stereo partly specified) yielded an Activity of 1 p.p.m.

For the molecule `C=C(C)[C@H]1C(=O)c2c3c(cc4c5c(n1c24)[C@@]1(C)C(CC[C@H]2[C@](C)(/C=C/C=C(\OC)C(=O)NCC)[C@@H](O)CC[C@@]21C)C5)C1=CC(C)(C)OC(C)(C)C1[C@@H]3O` (stereo partly specified), the Activity came out at 10 p.p.m.

Regarding `C=C(C)[C@H]1C(=O)c2c3c(cc4c5c(n1c24)[C@@]1(C)C(CC[C@H]2[C@](C)(/C=C/C=C(\C#N)C(=O)N4CCCC4)[C@@H](O)CC[C@@]21C)C5)C1=CC(C)(C)OC(C)(C)C1[C@@H]3O` (stereo partly specified), the Activity was 10 p.p.m.

Molecule `C=C(C)[C@H]1C(=O)c2c3c(cc4c5c(n1c24)[C@@]1(C)C(CC[C@H]2[C@](C)(/C=C/C=C(\CCCC)C(=O)NC(C)(C)C)[C@@H](O)CC[C@@]21C)C5)C1=CC(C)(C)OC(C)(C)C1[C@@H]3O` (stereo partly specified) showed an Activity of 10 p.p.m.

In turn, `C=C(C)[C@H]1C(=O)c2c3c(cc4c5c(n1c24)[C@@]1(C)C(CC[C@H]2[C@](C)(/C=C/C=C(\CCC)C(=O)NCC)[C@@H](O)CC[C@@]21C)C5)C1=CC(C)(C)OC(C)(C)C1[C@@H]3O` (stereo in doubt) displayed an Activity of 10 p.p.m.

Take `C=C(C)[C@H]1C(=O)c2c3c(cc4c5c(n1c24)[C@@]1(C)C(CC[C@H]2[C@](C)(/C=C/C=C/C(=O)OCc4ccccc4)[C@@H](O)CC[C@@]21C)C5)C1=CC(C)(C)OC(C)(C)C1[C@@H]3O` (stereo partly specified): the Activity was found to be 10 p.p.m.

The molecule `C=CC/C(=C\C=C\[C@]1(C)[C@@H](O)CC[C@@]2(C)[C@H]1CCC1Cc3c(n4c5c(c6c(cc35)C3=CC(C)(C)OC(C)(C)C3[C@@H]6O)C(=O)[C@@H]4C(=C)C)[C@@]12C)C(=O)N(C)C` (stereo partly specified) gave an Activity of 1 p.p.m.

`C=C(C)[C@H]1C(=O)c2c3c(cc4c5c(n1c24)[C@@]1(C)C(CC[C@H]2[C@](C)(/C=C/C=C(\CC)C(=O)NC(C)(C)C)[C@@H](O)CC[C@@]21C)C5)C1=CC(C)(C)OC(C)(C)C1[C@@H]3O` (stereo partly specified) showed an Activity of 1 p.p.m.

`C=C(C)[C@H]1C(=O)c2c3c(cc4c5c(n1c24)[C@@]1(C)C(CC[C@H]2[C@](C)(/C=C/C(C)=C/C(=O)NC4CC4)[C@@H](O)CC[C@@]21C)C5)C1=CC(C)(C)OC(C)(C)C1[C@@H]3O` (stereo partly specified) came in with an Activity of 1 p.p.m.

As to `C=C(C)[C@H]1C(=O)c2c3c(cc4c5c(n1c24)[C@@]1(C)C(CC[C@H]2[C@](C)(/C=C/C=C/C(N)=O)[C@@H](O)CC[C@@]21C)C5)C1=CC(C)(C)OC(C)(C)C1[C@@H]3O` (stereo partly specified), the Activity is 1 p.p.m.

In turn, `C=C(C)[C@H]1C(=O)c2c3c(cc4c5c(n1c24)[C@@]1(C)C(CC[C@H]2[C@](C)(/C=C/C=C(\C(C)=O)C(=O)N(C)C)[C@@H](O)CC[C@@]21C)C5)C1=CC(C)(C)OC(C)(C)C1[C@@H]3O` (stereo partly specified) registered an Activity of 1 p.p.m.

For `C=C(C)[C@H]1C(=O)c2c3c(cc4c5c(n1c24)[C@@]1(C)C(CC[C@H]2[C@](C)(/C=C/C=C\C(N)=O)[C@@H](O)CC[C@@]21C)C5)C1=CC(C)(C)OC(C)(C)C1[C@@H]3O` (stereo partly specified), the Activity was found to be 10 p.p.m.

Take `C=C(C)[C@H]1C(=O)c2c3c(cc4c5c(n1c24)[C@@]1(C)C(CC[C@H]2[C@](C)(/C=C/C=C(\F)C(=O)NCC)[C@@H](O)CC[C@@]21C)C5)C1=CC(C)(C)OC(C)(C)C1[C@@H]3O` (stereo partly specified): the Activity was found to be 1 p.p.m.

Consider `C=C(C)[C@H]1C(=O)c2c3c(cc4c5c(n1c24)[C@@]1(C)C(CC[C@H]2[C@](C)(/C=C/C=C(\CCCC)C(=O)NCC)[C@@H](O)CC[C@@]21C)C5)C1=CC(C)(C)OC(C)(C)C1[C@@H]3O` (stereo partly specified), for which the Activity is 1 p.p.m.

`C=CC/C(=C\C=C\[C@]1(C)[C@@H](O)CC[C@@]2(C)[C@H]1CCC1Cc3c(n4c5c(c6c(cc35)C3=CC(C)(C)OC(C)(C)C3[C@@H]6O)C(=O)[C@@H]4C(=C)C)[C@@]12C)C(=O)NCC` (stereo partly specified) yielded an Activity of 1 p.p.m.

`C=C(C)[C@H]1C(=O)c2c3c(cc4c5c(n1c24)[C@@]1(C)C(CC[C@H]2[C@](C)(/C=C/C=C/C(=O)OCC)[C@@H](O)CC[C@@]21C)C5)C1=CC(C)(C)OC(C)(C)C1[C@@H]3O` (stereo partly specified) gave an Activity of 1 p.p.m.

On to `C=C(C)[C@H]1C(=O)c2c3c(cc4c5c(n1c24)[C@@]1(C)C(CC[C@H]2[C@](C)(/C=C/C=C(\C#N)c4nc6ccccc6[nH]4)[C@@H](O)CC[C@@]21C)C5)C1=CC(C)(C)OC(C)(C)C1[C@@H]3O` (stereo partly specified), for which the Activity was determined as 10 p.p.m.

Turning to `C=C(C)[C@H]1C(=O)c2c3c(cc4c5c(n1c24)[C@@]1(C)C(CC[C@H]2[C@](C)(/C=C/C=C/C(=O)N(C)C)[C@@H](O)CC[C@@]21C)C5)C1=CC(C)(C)OC(C)(C)C1[C@@H]3O` (stereo partly specified), the Activity stood at 0.1 p.p.m.
